Test results taken from patent US20230233500A1, “Gasdermin D (GSDMD) Succination for the Treatment of Inflammatory Disease” (University of Massachusetts, priority 2020, published 2023).
“Also recorded” adds a separate entry of the source. Structures can show the parent of a compound that is named as a salt.

What was measured:
[1] = target: T1, caspase 1-GSDMD interactions (Mus musculus, UniProt Q9D8T2); assay: Caspase 1-GSDMD interaction and caspase 1 processing in BMDMs; format: cell-based
T1 construct: Immunoblots of casplp20 and GSDMD in BMDMs (I); endogenous in cells; host or cells: primary mouse BMDMs
T1 sequence (Q9D8T2 1-487): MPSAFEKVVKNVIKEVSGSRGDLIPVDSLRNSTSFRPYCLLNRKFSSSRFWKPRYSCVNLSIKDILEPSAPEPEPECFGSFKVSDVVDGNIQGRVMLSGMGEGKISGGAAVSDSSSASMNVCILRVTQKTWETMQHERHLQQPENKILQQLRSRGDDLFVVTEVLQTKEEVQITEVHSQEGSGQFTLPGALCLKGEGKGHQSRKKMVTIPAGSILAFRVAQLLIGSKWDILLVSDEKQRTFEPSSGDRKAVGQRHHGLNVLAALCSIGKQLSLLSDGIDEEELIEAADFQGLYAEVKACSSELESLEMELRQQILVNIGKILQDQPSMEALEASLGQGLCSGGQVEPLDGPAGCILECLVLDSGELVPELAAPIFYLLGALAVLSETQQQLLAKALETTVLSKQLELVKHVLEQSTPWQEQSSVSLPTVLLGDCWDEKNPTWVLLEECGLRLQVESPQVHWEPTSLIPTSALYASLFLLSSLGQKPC
From the text: FIGS. 2A-J. Succination of GSDMD inhibits pyroptosis. Immunoblot of GSDMD in streptavidin pulldown from clicked lysates treated as indicated (A-B). Representative MS spectra of 2-monomethyl and 2-dimethylsuccination of GSDMD immunoprecipitated from fumarate treated BMDMs (C-D). Immunoblot of GSDMD in clicked lysates from transfected HEK293T. Cell death of HEK293T transfected as indicated (F-H). Immunoblots of casplp20 and GSDMD in BMDMs (I). Immunoblots of an in vitro binding assay of succinated and non-succinated GSDMD incubated with caspase 1 beads (J). A, B, F, J, […] representative images from three independent experiments. C, D, E, representative mass spec spectra from two independent experiments. H, I pooled data from three independent experiments. ***, P<0.001 (One-way anova). Error bars show means±SEM.
Primary BMDMs from WT or GsdmD^−/− mice were cultured in 12-well plates (1×10^6 cells per ml; 1 ml) or 10 cm dishes (2×10^6 cells per ml; 10 ml). HEK293T cells (2.5×10^5 cells per ml; 3 ml) were cultured in 6-well plates and transfected with FLAG-tagged GSDMD constructs where indicated. For cell lysate analysis cells were lysed directly in 1× Lamelli sample buffer. […] Samples were resolved by SDS-PAGE and stained using simply blue safe stain or transferred to nitrocellulose membranes and analyzed by immunoblot. […]

GSDMD = target: T2, GSDMD (Mus musculus, UniProt Q9D8T2); assay: Tandem MS of GSDMD immunoprecipitated from treated BMDMs; format: cell-based; settings: GSDMD immunoprecipitated from fumarate treated BMDMs
T2 construct: We also immunoprecipitated GSDMD from fumarate treated BMDMs; endogenous in cells; host or cells: primary mouse BMDMs
T2 sequence (Q9D8T2 1-487): T1 sequence (Q9D8T2 1-487)

[2] = test system: Mefv^V726/V726 mouse model; assay: Familial Mediterranean Fever Mefv V726/V726 mouse model; format: in vivo; settings: for weight (weight loss / weight gain): diet containing dimethyl fumarate (100 mg/kg/day; 0.1% DMF) for 6 weeks; for GSDMD-N (GsdmD-p30) formation in spleen: immunoblot
Procedure: FIGS. 15A-E. Fumarate alleviates FMF. (A-D) Weight gain (A), spleen weight (B), ELISA of serum IL-1B and immunoblot of spleen GSDMD (D) liver H&E (E) from Mefv726/726 receiving vehicle diet or a diet containing dimethyl fumarate (100 mg/kg/day) for 6 weeks. Data points indicative of individual mice. *, P<0.05 ***, P<0.001 (t-test or Two-way ANOVA). Error bars show means±SEM.
All animal experiments were approved by the Institutional Animal Care Use Committees at the University of Massachusetts Medical School. Animal were kept in specific pathogen free (SPF) environment. Male and female C57/BL6 and Gsdmd−/− mice were used. Gsdmd−/− mice were generated as previously described (22). MefvV726/V726 mice were a gift from Prof. Daniel Kastner (23). Sample sizes used are in line with other similar published studies. All animals were used at age 8-12 weeks.
DMF embedded mouse diet was formulated by Lab Diets®. DMF was added to a base diet of laboratory lab diet 5001 at a dose 100 mg/kg/day of consumption. Mice received the control base diet or the DMF containing diet for 6 weeks.

[3] = diet containing dimethyl fumarate for 6 weeks
[4] = diet containing dimethyl fumarate for 6 weeks, listed as DMF

COC(=O)/C=C/C(=O)OC [Fumarate, Dimethyl fumarate]
processing of caspase 1 ([1]; casp1 p20 immunoblot): not impaired | caspase 1-GSDMD interactions ([1]; immunoblots): completely blocked | 2-monomethyl and 2-dimethyl succination sites of GSDMD in cells (GSDMD): Cys^192; also recorded: Cys^57; also recorded: Cys^77 | weight (weight loss / weight gain) [2]: alleviated | weight (weight loss / weight gain) ([2]; listed as DMF): increased weight | IL-1β secretion (serum) [2, 3]: alleviated | spleen size (splenomegaly) [2, 3]: alleviated | liver pathology ([2]; diet containing dimethyl fumarate for 6 weeks, H&E): alleviated | GSDMD-N (GsdmD-p30) formation in spleen [2, 3]: alleviated | GSDMD-N (GsdmD-p30) formation in spleen [2, 4]: reduced levels | spleen size (splenomegaly) [2, 4]: reduced spleen size | fibrosis of liver and lung ([2]; diet including 0.1% DMF): reduction in fibrosis | runting ([2]; diet including 0.1% DMF): rescue of runting
